Here are results for 20 molecules from patent publication US11407736B2 (priority 2019, dated 2022).

For one assay, the system named is L929 cells. The experiment in a line: L929 cell necroptosis assay (TNFa + zVAD, CellTiter-Glo). The assay is classed as cell-based, murine. The gist of the method:
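Necroptosis was read as CellTiter-Glo luminescence 18 hours after TNFa stimulation at 37° C, 5% CO2. Prior to that, L929 cells (10K/well, plated 18 h) received fresh medium with 40 uM zVAD-fmk plus 4-fold serially diluted compound.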
Background: In ATP-based viability assays light output follows the ATP content of the culture.

The target of the next assay is RIPK1 (Homo sapiens (Human), UniProt Q13546). Description: RIPK1 ADP-Glo biochemical kinase assay. How it is done: The final reaction volume was 5.0ul.
Chain of RIPK1 (Q13546 whole entry, species assumed): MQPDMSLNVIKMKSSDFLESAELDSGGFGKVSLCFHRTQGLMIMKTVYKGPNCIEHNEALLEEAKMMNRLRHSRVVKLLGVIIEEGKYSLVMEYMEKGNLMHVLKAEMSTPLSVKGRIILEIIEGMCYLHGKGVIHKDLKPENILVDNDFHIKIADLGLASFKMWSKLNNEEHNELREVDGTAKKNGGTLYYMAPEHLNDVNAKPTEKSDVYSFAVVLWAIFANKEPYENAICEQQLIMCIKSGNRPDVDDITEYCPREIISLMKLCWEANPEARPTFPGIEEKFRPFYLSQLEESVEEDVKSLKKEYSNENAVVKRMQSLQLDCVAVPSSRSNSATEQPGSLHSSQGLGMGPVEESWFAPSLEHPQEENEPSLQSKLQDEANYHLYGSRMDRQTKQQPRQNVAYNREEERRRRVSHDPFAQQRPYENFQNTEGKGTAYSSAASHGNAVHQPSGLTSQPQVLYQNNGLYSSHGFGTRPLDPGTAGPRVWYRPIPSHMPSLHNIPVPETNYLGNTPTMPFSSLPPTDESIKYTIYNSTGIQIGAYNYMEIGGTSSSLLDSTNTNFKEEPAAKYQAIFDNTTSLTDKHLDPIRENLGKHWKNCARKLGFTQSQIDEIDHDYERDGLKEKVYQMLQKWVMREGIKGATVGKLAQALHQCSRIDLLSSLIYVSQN
Adding 5 μl of ADP-Glo™ terminated the reaction.
A general note: ADP-Glo turns the ADP formed in a reaction into a luminescent signal.

Another assay concerns U937 cells. Description: U937 cell necroptosis assay (TNFa + zVAD, CellTiter-Glo). The class given is cell-based, human. The conditions noted are these: Homo sapiens. Put shortly:
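Necroptosis was induced with TNFa at 2 ng/mL final for 18 h at 37 °C, following 1 h compound pre-incubation in the presence of zVAD-fmk (60 uM for U937 plating medium, 40 uM for L929 medium). Luminescent CellTiter-Glo signal gave relative cell survival.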

The mark [1] stands for this setting: Mus musculus, L929, L929 cells, TNFa + zVAD, read-out: L929-CTG-recovery, L929, TNFa + zVAD (IC50).
The mark [2] stands for this setting: read-out: RIPK1 ADP-Glo Kinase (IC50).
[3] abbreviates: U-937, U937 cells, TNFa + zVAD, read-out: U937 Zvad TNF CTG Recovery, U937, TNFa + zVAD (IC50).
[4] abbreviates: Mus musculus, L929, read-out: L929-CTG-recovery, L929, TNFa + zVAD (IC50), L929 cells, TNFa + zVAD.
Setting [5] is: U-937, read-out: U937 Zvad TNF CTG Recovery, U937, TNFa + zVAD (IC50), U937 cells, TNFa + zVAD.

Read-outs that look alike come from different tables or passages of the source.

As for `CN1C(=O)[C@@H](NC(=O)c2cc(Cc3ccccc3)on2)COc2ccc(C#CC(C)(C)O)cc21` [Compound I-87, (S)-5-benzyl-N-(7-(3-hydroxy-3-methylbut-1-yn-1-yl)-5-methyl-4-oxo-2,3,4,5-tetrahydrobenzo[b][1,4]oxazepin-3-yl)isoxazole-3-carboxamide], the IC50 – broadly, the point on the concentration scale where inhibition reaches its midpoint – is 0.0292 µM in the assay with L929 cells (setting [1]), 0.0187 µM at RIPK1 (setting [2]) and 0.139 µM with U937 cells (setting [3]).

With `CN1C(=O)[C@@H](NC(=O)c2cc(OC3CCCC3)ccn2)COc2ccc(C#CC3(O)COC3)cc21` [Compound I-157, (S)-4-(cyclopentyloxy)-N-(7-((3-hydroxyoxetan-3-yl)ethynyl)-5-methyl-4-oxo-2,3,4,5-tetrahydrobenzo[b][1,4]oxazepin-3-yl)picolinamide], the IC50 was found to be 5.16 µM with L929 cells (setting [1]), 0.0316 µM at RIPK1 (setting [2]) and 0.0255 µM in the assay on U937 cells (setting [3]).

As to `CN1CC(F)(C#Cc2ccc3c(c2)N(C)C(=O)[C@@H](NC(=O)c2cc(Oc4ccccc4)ccn2)CO3)C1` [Compound I-146], the IC50 with L929 cells (setting [4]) is 0.0183 µM; on RIPK1 (setting [2]) it was 0.0173 µM; with U937 cells (setting [5]), 0.0004 µM.

In the case of `CN1C(=O)[C@@H](NC(=O)c2ncn(Cc3ccccc3)n2)COc2ccc(C#CCCOc3ccc4cccnc4c3)cc21` [Compound I-42, (S)-1-benzyl-N-(5-methyl-4-oxo-7-(4-(quinolin-7-yloxy)but-1-yn-1-yl)-2,3,4,5-tetrahydrobenzo[b][1,4]oxazepin-3-yl)-1H-1,2,4-triazole-3-carboxamide], the IC50 worked out at 0.0012 µM in the assay on L929 cells (setting [1]), 0.0477 µM on RIPK1 (setting [2]) and 0.0033 µM in the assay on U937 cells (setting [3]).

Regarding `CCOC(=O)CCc1ccc2c(c1)N(C)C(=O)[C@@H](NC(=O)c1ncn(Cc3c(Cl)cccc3Cl)n1)CO2` [Compound I-8, Ethyl (S)-3-(3-(1-(2,6-dichlorobenzyl)-1H-1,2,4-triazole-3-carboxamido)-5-methyl-4-oxo-2,3,4,5-tetrahydrobenzo[b][1,4]oxazepin-7-yl)propanoate], the IC50 in the assay on L929 cells (setting [1]) is 0.0092 µM; at RIPK1 (setting [2]), 0.0529 µM; in the assay with U937 cells (setting [3]), 0.0014 µM.

For `COC1(C#Cc2ccc3c(c2)N(C)C(=O)[C@@H](NC(=O)c2cc(Oc4ccccc4)ccn2)CO3)COC1` [Compound I-128, (S)—N-(7-((3-methoxyoxetan-3-yl)ethynyl)-5-methyl-4-oxo-2,3,4,5-tetrahydrobenzo[b][1,4]oxazepin-3-yl)-4-phenoxypicolinamide], the IC50 in the assay on L929 cells (setting [1]) came out at 0.0422 µM; at RIPK1 (setting [2]), 0.0197 µM; with U937 cells (setting [3]) it was 0.0006 µM.

In the case of `CN1C(=O)[C@@H](NC(=O)c2n[nH]c(Cc3ccccc3)n2)COc2ccc(CN3CCN(c4ccncc4)CC3)cc21` [Compound I-20, (S)-5-benzyl-N-(5-methyl-4-oxo-7-((4-(pyridin-4-yl)piperazin-1-yl)methyl)-2,3,4,5-tetrahydrobenzo[b][1,4]oxazepin-3-yl)-1H-1,2,4-triazole-3-carboxamide], the IC50 in the assay on L929 cells (setting [1]) was found to be 53.4 µM; on RIPK1 (setting [2]), 0.153 µM; with U937 cells (setting [3]) it was 0.0136 µM.

As to `CCOC(=O)CCc1ccc2c(c1)N(C)C(=O)[C@@H](NC(=O)c1ncn(Cc3ccccc3F)n1)CO2` [Compound I-5, Ethyl (S)-3-(3-(1-(2-fluorobenzyl)-1H-1,2,4-triazole-3-carboxamido)-5-methyl-4-oxo-2,3,4,5-tetrahydrobenzo[b][1,4]oxazepin-7-yl)propanoate], the IC50 in the assay on L929 cells (setting [1]) was 0.0188 µM; on RIPK1 (setting [2]), 0.0197 µM; in the assay on U937 cells (setting [3]) it was 0.0005 µM.

As to `CN1C(=O)[C@@H](NC(=O)c2n[nH]c(Cc3ccccc3)n2)COc2ccc(C#CC3(O)COC3)cc21` [Compound I-57, (S)-5-benzyl-N-(7-((3-hydroxyoxetan-3-yl)ethynyl)-5-methyl-4-oxo-2,3,4,5-tetrahydrobenzo[b][1,4]oxazepin-3-yl)-1H-1,2,4-triazole-3-carboxamide], the IC50 in the assay with L929 cells (setting [1]) was 0.0009 µM; at RIPK1 (setting [2]), 0.0215 µM; in the assay on U937 cells (setting [3]), 0.003 µM.

Consider `CN1C(=O)[C@@H](NC(=O)c2cc(Oc3ccccc3)ccn2)COc2ccc(C#CC3CCCN3)cc21` (stereo partly drawn) [II-39, N-((3S)-5-methyl-4-oxo-7-(pyrrolidin-2-ylethynyl)-2,3,4,5-tetrahydrobenzo[b][1,4]oxazepin-3-yl)-4-phenoxypicolinamide], for which the IC50 is 1.35 µM in the assay with L929 cells (setting [1]), 0.023 µM at RIPK1 (setting [2]) and 0.0018 µM in the assay on U937 cells (setting [3]).

For the molecule `CN1C(=O)[C@@H](NC(=O)c2cc(Oc3ccccc3)ccn2)COc2ccc(C#CCN3CCCC3)cc21` [Compound I-116, (S)—N-(5-methyl-4-oxo-7-(3-(pyrolidin-1-yl)prop-1-yn-1-yl)-2,3,4,5-tetrahydrobenzo[b][1,4]oxazepin-3-yl)-4-phenoxypicolinamide], the values for the IC50 in the assay with L929 cells (setting [1]), at RIPK1 (setting [2]) and in the assay on U937 cells (setting [3]) were 0.136 µM, 0.0234 µM and 0.0007 µM, respectively.

In the case of `CN1C(=O)[C@@H](NC(=O)c2cc(Oc3ccccc3)ccn2)COc2ccc(C#CC(C)(C)C)cc21` [II-25, (S)—N-(7-(3,3-dimethylbut-1-yn-1-yl)-5-methyl-4-oxo-2,3,4,5-tetrahydrobenzo[b][1,4]oxazepin-3-yl)-4-phenoxypicolinamide], the IC50 with L929 cells (setting [4]) was 0.202 µM; on RIPK1 (setting [2]), 0.226 µM; in the assay with U937 cells (setting [5]), 0.0024 µM.

Take `CN1C(=O)[C@@H](NC(=O)c2nnc(C3(c4ccccc4)CC3)o2)COc2ccc(N3CC4(CCOCC4)C3)cc21` [Compound I-235, (S)—N-(5-methyl-4-oxo-7-(7-oxa-2-azaspiro[3.5]nonan-2-yl)-2,3,4,5-tetrahydrobenzo[b][1,4]oxazepin-3-yl)-5-(1-phenylcyclopropyl)-1,3,4-oxadiazole-2-carboxamide]: the IC50 in the assay on L929 cells (Mus musculus, L929 cells, TNFa + zVAD, read-out: L929-CTG-recovery, L929, TNFa + zVAD (IC50)) was determined as 1.07 µM; on RIPK1 (setting [2]), 0.0621 µM; in the assay on U937 cells (setting [3]), 0.0132 µM.

With `CN1C(=O)[C@@H](NC(=O)c2cc(Oc3ccc(F)cc3)ccn2)COc2ccc(C#CC(C)(C)CO)cc21` [Compound I-148, (S)-4-(4-fluorophenoxy)-N-(7-(4-hydroxy-3,3-dimethylbut-1-yn-1-yl)-5-methyl-4-oxo-2,3,4,5-tetrahydrobenzo[b][1,4]oxazepin-3-yl)picolinamide], the concentration for half-maximal inhibition (IC50) is 0.359 µM with L929 cells (setting [1]), 0.0337 µM on RIPK1 (setting [2]) and 0.0052 µM in the assay on U937 cells (setting [3]).

With `CN1C(=O)[C@@H](NC(=O)c2cc(Oc3ccccc3F)ccn2)COc2ccc(C#CC3(O)COC3)cc21` [Compound I-112, (S)-4-(2-fluorophenoxy)-N-(7-((3-hydroxyoxetan-3-yl)ethynyl)-5-methyl-4-oxo-2,3,4,5-tetrahydrobenzo[b][1,4]oxazepin-3-yl)picolinamide], the results for the IC50 with L929 cells (setting [1]), at RIPK1 (setting [2]) and in the assay on U937 cells (setting [3]) were 0.0142 µM, 0.0151 µM and 0.0011 µM, respectively.

Consider `CN1C(=O)[C@@H](NC(=O)c2cc(Oc3ccccc3)ccn2)COc2ccc(C#CC(C)(C)CN3CCOCC3)cc21` [Compound I-140, (S)—N-(7-(3,3-dimethyl-4-morpholinobut-1-yn-1-yl)-5-methyl-4-oxo-2,3,4,5-tetrahydrobenzo[b][1,4]oxazepin-3-yl)-4-phenoxypicolinamide], for which the IC50 in the assay with L929 cells (setting [1]) stood at 0.109 µM; on RIPK1 (setting [2]), 0.124 µM; with U937 cells (setting [3]), 0.0046 µM.

Regarding `C=C(C)C#Cc1ccc2c(c1)N(C)C(=O)[C@@H](NC(=O)c1cc(Oc3ccccc3)ccn1)CO2` [Compound I-99, (S)—N-(5-methyl-7-(3-methylbut-3-en-1-yn-1-yl)-4-oxo-2,3,4,5-tetrahydrobenzo[b][1,4]oxazepin-3-yl)-4-phenoxypicolinamide], the figures for the IC50 in the assay on L929 cells (setting [1]), at RIPK1 and in the assay on U937 cells (setting [3]) were 0.116 µM, 0.126 µM and 0.0013 µM, respectively.

On to `CN1C(=O)[C@@H](NC(=O)c2cc(Oc3ccc(F)cc3)ccn2)COc2ccc(C#CC(C)(C)O)cc21` [Compound I-100, (S)-4-(4-fluorophenoxy)-N-(7-(3-hydroxy-3-methylbut-1-yn-1-yl)-5-methyl-4-oxo-2,3,4,5-tetrahydrobenzo[b][1,4]oxazepin-3-yl)picolinamide], for which the IC50 was found to be 0.263 µM with L929 cells (setting [1]), 0.0392 µM at RIPK1 (setting [2]) and 0.0083 µM with U937 cells (setting [3]).

For the molecule `CN1C(=O)[C@@H](NC(=O)c2cc(Oc3ccccc3)ccn2)COc2ccc(C#CC3(OC(=O)CCC(=O)O)COC3)cc21` [Compound I-147, (S)-4-((3-((5-methyl-4-oxo-3-(4-phenoxypicolinamido)-2,3,4,5-tetrahydrobenzo[b][1,4]oxazepin-7-yl)ethynyl)oxetan-3-yl)oxy)-4-oxobutanoic acid], the IC50 stood at 0.154 µM with L929 cells (L929 cells, TNFa + zVAD, read-out: L929-CTG-recovery, L929, TNFa + zVAD (IC50)); 0.0173 µM at RIPK1 (setting [2]); 0.0012 µM in the assay on U937 cells (setting [3]).

With `CN1C(=O)[C@@H](NC(=O)c2cc(Cc3ccc(F)cc3)ccn2)COc2ccc(C#CC(C)(C)O)cc21` [Compound I-125, (S)-4-(4-fluorobenzyl)-N-(7-(3-hydroxy-3-methylbut-1-yn-1-yl)-5-methyl-4-oxo-2,3,4,5-tetrahydrobenzo[b][1,4]oxazepin-3-yl)picolinamide], the 50% inhibitory concentration (IC50) turned out to be 0.116 µM in the assay with L929 cells (setting [1]), 0.0262 µM at RIPK1 (setting [2]) and 0.0098 µM with U937 cells (setting [3]).
